Results taken from article PMC9574929, “Development of Hydrogen Sulfide-Releasing Carbonic Anhydrases IX- and XII-Selective Inhibitors with Enhanced Antihyperalgesic Action in a Rat Model of Arthritis” (Journal of Medicinal Chemistry, 2022).

What was measured:
hCA IV = hCA IV (Homo sapiens, UniProt P22748); assay: Stopped-flow CO2 hydrase assay, hCA IV; conditions: for SI CA I/IV / SI CA II/IV: selectivity index, ratio of KIs
hCA I = hCA I (Homo sapiens, UniProt P00915); assay: Stopped-flow CO2 hydrase assay, hCA I
Experimental: (§1) The uncatalyzed rates were determined in the same manner and subtracted from the total observed rates. Stock solutions of inhibitor (0.1 mM) were prepared in distilled-deionized water and dilutions up to 0.01 nM were done thereafter with the assay buffer. […] The inhibition constants were obtained by nonlinear least-squares methods using PRISM 3 and the Cheng–Prusoff equation, as reported earlier,[39] and represent the mean from at least three different determinations.

hCA XII = hCA XII (Homo sapiens, UniProt O43570); assay: Stopped-flow CO2 hydrase assay, hCA XII; conditions: for SI CA I/XII / SI CA II/XII: selectivity index, ratio of KIs
Experimental: as §1

hCA IX = hCA IX (Homo sapiens, UniProt Q16790); assay: Stopped-flow CO2 hydrase assay, hCA IX; conditions: for SI CA I/IX / SI CA II/IX: selectivity index, ratio of KIs
Experimental: as §1

hCA II = hCA II (Homo sapiens, UniProt P00918); assay: Stopped-flow CO2 hydrase assay, hCA II; conditions: for SI CA I/II: selectivity index, ratio of KIs
Experimental: as §1

Sequence of hCA I (P00915 whole entry): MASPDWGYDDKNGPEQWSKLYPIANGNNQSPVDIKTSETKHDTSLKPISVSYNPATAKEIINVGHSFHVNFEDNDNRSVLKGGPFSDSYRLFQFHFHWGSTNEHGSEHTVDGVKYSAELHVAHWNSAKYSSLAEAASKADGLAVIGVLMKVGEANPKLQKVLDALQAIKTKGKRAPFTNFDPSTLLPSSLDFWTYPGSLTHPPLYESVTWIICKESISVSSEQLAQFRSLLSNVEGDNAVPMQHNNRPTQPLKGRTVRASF
Sequence of hCA IV (P22748 19-312): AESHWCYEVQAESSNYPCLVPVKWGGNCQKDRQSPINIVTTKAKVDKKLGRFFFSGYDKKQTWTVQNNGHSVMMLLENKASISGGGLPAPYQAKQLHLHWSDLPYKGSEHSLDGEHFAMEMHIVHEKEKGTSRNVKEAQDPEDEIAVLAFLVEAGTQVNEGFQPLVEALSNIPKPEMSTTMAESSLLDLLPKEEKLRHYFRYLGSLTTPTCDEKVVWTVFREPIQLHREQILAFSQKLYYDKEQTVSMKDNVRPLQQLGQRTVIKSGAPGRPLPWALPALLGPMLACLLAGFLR
Sequence of hCA XII (O43570 25-354): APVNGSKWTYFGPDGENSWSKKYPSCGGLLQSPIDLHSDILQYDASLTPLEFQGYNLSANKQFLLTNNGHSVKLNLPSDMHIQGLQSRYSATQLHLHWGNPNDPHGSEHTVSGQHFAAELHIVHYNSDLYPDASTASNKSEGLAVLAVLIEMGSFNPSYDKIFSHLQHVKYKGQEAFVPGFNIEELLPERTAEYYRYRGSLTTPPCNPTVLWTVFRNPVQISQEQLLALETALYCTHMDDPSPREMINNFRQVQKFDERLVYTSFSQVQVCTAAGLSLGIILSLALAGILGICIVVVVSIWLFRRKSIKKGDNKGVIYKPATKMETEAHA

COc1cc([N+](=O)[O-])ccc1CNCCc1ccc(S(N)(=O)=O)cc1 [Compound 11, 4-(2-((2-Methoxy-4-nitrobenzyl)amino)ethyl)benzenesulfonamide]
Ki (hCA IV): 1860 nM | Ki (hCA I): 145 nM

CN(C)c1ccc(CN(CCc2ccc(S(N)(=O)=O)cc2)C(=O)c2ccc(-c3cssc3=S)cc2)cc1 [Compound 24, N-(4-(Dimethylamino)benzyl)-N-(4-sulfamoylphenethyl)-4-(3-thioxo-3H-1,2-dithiol-4-yl)benzamide]
SI CA I/XII (hCA XII): 448 | SI CA II/XII (hCA XII): 105 | melting point: 185 to 186 °C | SI CA I/IV (hCA IV): 1.2 | SI CA II/IV (hCA IV): 0.3 | SI CA I/IX (hCA IX): 188 | SI CA II/IX (hCA IX): 43.9

CN(C)c1ccc(CNCCc2ccc(S(N)(=O)=O)cc2)cc1 [Compound 9, 4-(2-((4-(Dimethylamino)benzyl)amino)ethyl)benzenesulfonamide]
Ki (hCA IV): 961 nM

NS(=O)(=O)c1ccc(CCN(Cc2ccc(F)cc2)C(=O)c2ccc(-c3cssc3=S)cc2)cc1 [Compound 20, N-(4-Fluorobenzyl)-N-(4-sulfamoylphenethyl)-4-(3-thioxo-3H-1,2-dithiol-4-yl)benzamide]
SI CA I/XII (hCA XII): 81.5 | SI CA II/XII (hCA XII): 9.2 | melting point: 158 to 159 °C | SI CA I/IV (hCA IV): <0.53 | SI CA II/IV (hCA IV): <0.06 | SI CA I/IX (hCA IX): 115 | SI CA II/IX (hCA IX): 13.0

NS(=O)(=O)c1ccc(CCN(CCc2ccccc2)C(=O)c2ccc(-c3cssc3=S)cc2)cc1 [Compound 32, N-Phenethyl-N-(4-sulfamoylphenethyl)-4-(3-thioxo-3H-1,2-dithiol-4-yl)benzamide]
SI CA I/XII (hCA XII): 462 | SI CA II/XII (hCA XII): 69.6 | melting point: 228 to 229 °C | SI CA I/IV (hCA IV): 18.0 | SI CA II/IV (hCA IV): 2.7 | SI CA I/IX (hCA IX): 34.9 | SI CA II/IX (hCA IX): 5.3

NS(=O)(=O)c1ccc(CCNCc2ccc(Cl)cc2)cc1 [Compound 6, 4-(2-((4-Chlorobenzyl)amino)ethyl)benzenesulfonamide]
Ki (hCA XII): 75.2 nM | SI CA I/XII (hCA XII): 1.8 | SI CA II/XII (hCA XII): 1.5 | Ki (hCA IV): 3680 nM | SI CA I/IV (hCA IV): 0.04 | SI CA II/IV (hCA IV): 0.03 | Ki (hCA IX): 67.4 nM | SI CA I/IX (hCA IX): 2.0 | SI CA II/IX (hCA IX): 1.7 | Ki (hCA II): 115 nM | SI CA I/II (hCA II): 1.2 | Ki (hCA I): 136 nM

NS(=O)(=O)c1ccc(CCN(Cc2ccc(Cl)cc2)C(=O)c2ccc(-c3cssc3=S)cc2)cc1 [Compound 21, N-(4-Chlorobenzyl)-N-(4-sulfamoylphenethyl)-4-(3-thioxo-3H-1,2-dithiol-4-yl)benzamide]
SI CA I/XII (hCA XII): 561 | SI CA II/XII (hCA XII): 303 | melting point: 104 to 105 °C | SI CA I/IV (hCA IV): 12.8 | SI CA II/IV (hCA IV): 6.9 | SI CA I/IX (hCA IX): 229 | SI CA II/IX (hCA IX): 124

N#Cc1ccc(CN(CCc2ccc(S(N)(=O)=O)cc2)C(=O)c2ccc(-c3cssc3=S)cc2)cc1 [Compound 23, N-(4-Cyanobenzyl)-N-(4-sulfamoylphenethyl)-4-(3-thioxo-3H-1,2-dithiol-4-yl)benzamide]
SI CA I/XII (hCA XII): >1136 | SI CA II/XII (hCA XII): 548 | melting point: 251 to 252 °C | SI CA I/IV (hCA IV): >216.4 | SI CA II/IV (hCA IV): 104 | SI CA I/IX (hCA IX): >248 | SI CA II/IX (hCA IX): 120

NS(=O)(=O)c1ccc(CCN(Cc2ccc(Br)cc2)C(=O)c2ccc(-c3cssc3=S)cc2)cc1 [Compound 22, N-(4-Bromobenzyl)-N-(4-sulfamoylphenethyl)-4-(3-thioxo-3H-1,2-dithiol-4-yl)benzamide]
SI CA I/XII (hCA XII): 597 | SI CA II/XII (hCA XII): 284 | melting point: 65 to 66 °C | SI CA I/IV (hCA IV): 7.4 | SI CA II/IV (hCA IV): 3.5 | SI CA I/IX (hCA IX): 403 | SI CA II/IX (hCA IX): 192

CSc1ccc(CNCCc2ccc(S(N)(=O)=O)cc2)cc1 [Compound 14, 4-(2-((4-(Methylthio)benzyl)amino)ethyl)benzenesulfonamide]
Ki (hCA XII): 88.6 nM | Ki (hCA IV): 2130 nM | Ki (hCA IX): 112 nM | Ki (hCA I): 122 nM

COc1ccc(CN(CCc2ccc(S(N)(=O)=O)cc2)C(=O)c2ccc(-c3cssc3=S)cc2)cc1OC [Compound 28, N-(3,4-Dimethoxybenzyl)-N-(4-sulfamoylphenethyl)-4-(3-thioxo-3H-1,2-dithiol-4-yl)benzamide]
SI CA I/XII (hCA XII): 105 | SI CA II/XII (hCA XII): 25.7 | melting point: 183 to 184 °C | SI CA I/IV (hCA IV): 3.0 | SI CA II/IV (hCA IV): 0.7 | SI CA I/IX (hCA IX): 47.9 | SI CA II/IX (hCA IX): 11.7 | Ki (hCA I): 771 to 890 nM

COc1ccc(CNCCc2ccc(S(N)(=O)=O)cc2)cc1OC [Compound 13, 4-(2-((3,4-Dimethoxybenzyl)amino)ethyl)benzenesulfonamide]
Ki (hCA XII): 51 nM | SI CA I/XII (hCA XII): 0.9 | SI CA II/XII (hCA XII): 1.5 | Ki (hCA IV): 1100 nM | SI CA II/IV (hCA IV): 0.07 | Ki (hCA IX): 103 nM | SI CA I/IX (hCA IX): 0.9 | SI CA II/IX (hCA IX): 0.7 | Ki (hCA II): 75.2 nM | SI CA I/II (hCA II): 1.2 | Ki (hCA I): 88.6 nM

NS(=O)(=O)c1ccc(CCN(Cc2ccc([N+](=O)[O-])cc2)C(=O)c2ccc(-c3cssc3=S)cc2)cc1 [Compound 25, N-(4-Nitrobenzyl)-N-(4-sulfamoylphenethyl)-4-(3-thioxo-3H-1,2-dithiol-4-yl)benzamide]
SI CA I/XII (hCA XII): 226 | SI CA II/XII (hCA XII): 27.9 | melting point: 223 to 224 °C | SI CA I/IV (hCA IV): <0.7 | SI CA II/IV (hCA IV): <0.09 | SI CA I/IX (hCA IX): 204 | SI CA II/IX (hCA IX): 25.1

COc1ccc(CNCCc2ccc(S(N)(=O)=O)cc2)cc1 [Compound 12, 4-(2-((4-Methoxybenzyl)amino)ethyl)benzenesulfonamide]
Ki (hCA XII): 57.2 nM | Ki (hCA IV): 1450 nM | Ki (hCA I): 97.2 nM

N#Cc1ccc(CNCCc2ccc(S(N)(=O)=O)cc2)cc1 [Compound 8, 4-(2-((4-Cyanobenzyl)amino)ethyl)benzenesulfonamide]
Ki (hCA XII): 52.9 nM | Ki (hCA IV): 1780 nM | Ki (hCA II): 70.2 nM | Ki (hCA I): 91.4 nM

NS(=O)(=O)c1ccc(CCNCc2csc3ccccc23)cc1 [Compound 16, 4-(2-((Benzo[b]thiophen-3-ylmethyl)amino)ethyl)benzenesulfonamide]
Ki (hCA XII): 69.8 nM | SI CA I/XII (hCA XII): 5.3 | SI CA II/XII (hCA XII): 2.8 | Ki (hCA IV): 7240 nM | SI CA I/IV (hCA IV): 0.05 | SI CA II/IV (hCA IV): 0.03 | Ki (hCA IX): 70.5 nM | SI CA I/IX (hCA IX): 5.3 | SI CA II/IX (hCA IX): 2.8 | Ki (hCA II): 202 nM | SI CA I/II (hCA II): 1.9 | Ki (hCA I): 374 nM

NS(=O)(=O)c1ccc(CCNCc2ccc(Br)cc2)cc1 [Compound 7, 4-(2-((4-Bromobenzyl)amino)ethyl)benzenesulfonamide]
Ki (hCA XII): 83.6 nM | SI CA I/XII (hCA XII): 2.6 | SI CA II/XII (hCA XII): 2.3 | Ki (hCA IV): 5240 nM | SI CA I/IV (hCA IV): 0.04 | SI CA II/IV (hCA IV): 0.04 | Ki (hCA IX): 86.4 nM | SI CA I/IX (hCA IX): 2.5 | SI CA II/IX (hCA IX): 2.2 | Ki (hCA II): 189 nM | SI CA I/II (hCA II): 1.1 | Ki (hCA I): 214 nM

N#CCCN(CCc1ccc(S(N)(=O)=O)cc1)C(=O)c1ccc(-c2cssc2=S)cc1 [Compound 33, N-(2-Cyanoethyl)-N-(4-sulfamoylphenethyl)-4-(3-thioxo-3H-1,2-dithiol-4-yl)benzamide]
SI CA I/XII (hCA XII): 45.2 | SI CA II/XII (hCA XII): 6.4 | SI CA I/IV (hCA IV): 0.8 | SI CA II/IV (hCA IV): 0.11 | SI CA I/IX (hCA IX): 15.0 | SI CA II/IX (hCA IX): 2.1

COc1ccc(CN(CCc2ccc(S(N)(=O)=O)cc2)C(=O)c2ccc(-c3cssc3=S)cc2)cc1 [Compound 27, N-(4-Methoxybenzyl)-N-(4-sulfamoylphenethyl)-4-(3-thioxo-3H-1,2-dithiol-4-yl)benzamide]
SI CA I/XII (hCA XII): 29.0 | SI CA II/XII (hCA XII): 7.7 | melting point: 151 to 152 °C | SI CA I/IV (hCA IV): 1.4 | SI CA II/IV (hCA IV): 0.4 | SI CA I/IX (hCA IX): 44.0 | SI CA II/IX (hCA IX): 11.7
